From patent US20080009418A1, “Selective Inhibitors” (Alchemia LTD., priority 2004, published 2008)

Legend:
Human Melanocortin (MC3) = target: T1, Human Melanocortin (MC3) (Homo sapiens, UniProt P41968); assay: Radioligand binding, human melanocortin MC3 membranes, FlashPlate, [125I]-NDP-αMSH; details: compound at 10 μM, [125I]-NDP-αMSH
T1 construct: purchased Perkin Elmer Biosignal
How it was run: (§1)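 Cloned human receptor membranes were coated onto FlashPlate wells and incubated with radioligand and compound (added from a 0.5 mM DMSO daughter plate) for 1 hour at room temperature in the dark. Scintillation counting gave percent inhibition, with DMSO defining total and reference ligand defining non-specific binding.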

Human melanocortin (MC5) = target: T2, Human melanocortin (MC5) (Homo sapiens, UniProt P33032); assay: Radioligand binding, human melanocortin MC5 membranes, FlashPlate, [125I]-NDP-αMSH; details: compound at 10 μM, [125I]-NDP-αMSH
T2 construct: purchased Perkin Elmer Biosignal
How it was run: as §1

Human opioid (ORL1) = target: T3, Human opioid (ORL1) (Homo sapiens, UniProt P41146); assay: Radioligand binding, human opioid ORL1 membranes, FlashPlate, [125I]-Nociceptin; details: compound at 10 μM, [125I]-Nociceptin
T3 construct: purchased Perkin Elmer Biosignal
How it was run: as §1

Human δ-opioid (DOP) = target: T4, Human δ-opioid (DOP) (Homo sapiens, UniProt P41143); assay: Radioligand binding, human δ-opioid (DOP) membranes, FlashPlate, [3H]-Bremazocine; details: compound at 10 μM, [3H]-Bremazocine
T4 construct: purchased Perkin Elmer Biosignal
How it was run: as §1

Human neurokinin (NK1) = target: T5, Human neurokinin (NK1) (Homo sapiens, UniProt P25103); assay: Radioligand binding, human neurokinin NK1 membranes, filtration, [125I]-Substance P; details: compound at 10 μM, [125I]-Substance P
T5 construct: purchased Perkin Elmer Biosignal
How it was run: (§2)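 Membranes from cloned human receptors were incubated with compound and radioligand for 1 hour at room temperature. Bound ligand was collected on 0.3% PEI-soaked filters, washed with cold 50 mM Tris-HCl pH 7.4, and counted by scintillation. Percent inhibition was computed against DMSO totals and reference-ligand nonspecific wells.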

Human Melanocortin (MC4) = target: T6, Human Melanocortin (MC4) (Homo sapiens, UniProt P32245); assay: Radioligand binding, human melanocortin MC4 membranes, FlashPlate, [125I]-NDP-αMSH; details: compound at 10 μM, [125I]-NDP-αMSH
T6 construct: purchased Perkin Elmer Biosignal
How it was run: as §1

[1] = target: T7, Human melanin-concentrating hormone (MCH1) (Homo sapiens, UniProt Q99705); assay: Radioligand binding, human melanin-concentrating hormone MCH1 membranes, FlashPlate, [125I]-S36057; details: compound at 10 μM; for A6: inhibition of radioligand binding, human melanin-concentrating hormone (MCH1): [125I]-S36057
T7 construct: purchased Perkin Elmer Biosignal
How it was run: as §1

Human μ-opioid (MOP) = target: T8, Human μ-opioid (MOP) (Homo sapiens, UniProt P35372); assay: Radioligand binding, human μ-opioid (MOP) membranes, FlashPlate, [3H]-Naloxone; details: compound at 10 μM, [3H]-Naloxone
T8 construct: purchased Perkin Elmer Biosignal
How it was run: as §1

Mouse urotensin (mUR2) = target: T9, Mouse urotensin (mUR2) (Mus musculus, UniProt Q8VIH9); assay: Radioligand binding, mouse urotensin mUR2 membranes, FlashPlate, [125I]-Urotensin II; details: compound at 10 μM, [125I]-Urotensin II
T9 construct: purchased Perkin Elmer Biosignal
T9 sequence (Q8VIH9 1-385): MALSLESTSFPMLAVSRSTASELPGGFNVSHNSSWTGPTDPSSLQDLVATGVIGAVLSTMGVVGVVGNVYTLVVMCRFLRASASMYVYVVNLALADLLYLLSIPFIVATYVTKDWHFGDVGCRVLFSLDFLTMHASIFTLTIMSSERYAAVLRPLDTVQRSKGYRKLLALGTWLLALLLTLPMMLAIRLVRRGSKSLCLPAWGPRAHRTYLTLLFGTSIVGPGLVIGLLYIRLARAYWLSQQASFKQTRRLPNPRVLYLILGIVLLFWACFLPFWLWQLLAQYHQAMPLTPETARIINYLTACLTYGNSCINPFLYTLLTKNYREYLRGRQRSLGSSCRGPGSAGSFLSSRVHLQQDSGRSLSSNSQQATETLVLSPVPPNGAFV
How it was run: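 Cloned mouse urotensin (mUR2) receptor membranes from Perkin Elmer Biosignal were immobilized in FlashPlate microplates using a proprietary coating. Each well got 19.5 μl buffer, then 0.5 μl of DMSO, reference ligand, or compound. Adding 5 μl of [125I]-Urotensin II, diluted to 5× final concentration in binding buffer, started binding. Plates were sealed with TopSeal-A and incubated 1 hour at room temperature in the dark. Wells were counted for 30 seconds each on a TopCount after a 60-second delay, and percentage inhibition was calculated.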

Human κ-Opioid (KOP) = target: T10, Human κ-Opioid (KOP) (Homo sapiens, UniProt P41145); assay: Radioligand binding, human κ-opioid (KOP) membranes, filtration, [3H]-Diprenorphine; details: compound at 10 μM, [3H]-Diprenorphine
T10 construct: purchased Perkin Elmer Biosignal
How it was run: as §2

[2] = target: T11, Human neuropeptide Y (NPY-Y1) (Homo sapiens, UniProt P25929); assay: Radioligand binding, human neuropeptide Y NPY-Y1 membranes, FlashPlate, [125I]-PYY; details: compound at 10 μM, [125I]-PYY
T11 construct: purchased Perkin Elmer Biosignal
T11 sequence (P25929 1-384): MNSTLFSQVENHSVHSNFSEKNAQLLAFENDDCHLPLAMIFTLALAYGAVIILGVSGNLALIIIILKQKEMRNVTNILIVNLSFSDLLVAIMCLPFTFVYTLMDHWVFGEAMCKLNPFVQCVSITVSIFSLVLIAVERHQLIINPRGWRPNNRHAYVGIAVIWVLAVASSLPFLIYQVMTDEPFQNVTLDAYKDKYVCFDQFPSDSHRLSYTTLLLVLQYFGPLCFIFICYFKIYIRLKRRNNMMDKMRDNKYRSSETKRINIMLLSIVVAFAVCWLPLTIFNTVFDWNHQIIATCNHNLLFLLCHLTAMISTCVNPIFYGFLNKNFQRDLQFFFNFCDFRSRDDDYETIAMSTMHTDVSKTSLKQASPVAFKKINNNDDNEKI
How it was run: as §1

T5 sequence (P25103 whole entry): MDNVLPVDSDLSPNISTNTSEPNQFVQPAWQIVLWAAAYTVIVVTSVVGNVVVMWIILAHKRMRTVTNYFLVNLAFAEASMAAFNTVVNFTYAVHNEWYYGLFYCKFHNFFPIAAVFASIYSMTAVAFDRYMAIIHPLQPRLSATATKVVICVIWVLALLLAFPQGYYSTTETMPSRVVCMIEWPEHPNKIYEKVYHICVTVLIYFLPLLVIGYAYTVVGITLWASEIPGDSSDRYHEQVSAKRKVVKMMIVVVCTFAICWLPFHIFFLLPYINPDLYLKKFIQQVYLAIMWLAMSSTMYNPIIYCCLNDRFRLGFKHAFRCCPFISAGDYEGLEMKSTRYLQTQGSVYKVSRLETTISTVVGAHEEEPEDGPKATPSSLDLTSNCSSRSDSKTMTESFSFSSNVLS
T6 sequence (P32245 whole entry): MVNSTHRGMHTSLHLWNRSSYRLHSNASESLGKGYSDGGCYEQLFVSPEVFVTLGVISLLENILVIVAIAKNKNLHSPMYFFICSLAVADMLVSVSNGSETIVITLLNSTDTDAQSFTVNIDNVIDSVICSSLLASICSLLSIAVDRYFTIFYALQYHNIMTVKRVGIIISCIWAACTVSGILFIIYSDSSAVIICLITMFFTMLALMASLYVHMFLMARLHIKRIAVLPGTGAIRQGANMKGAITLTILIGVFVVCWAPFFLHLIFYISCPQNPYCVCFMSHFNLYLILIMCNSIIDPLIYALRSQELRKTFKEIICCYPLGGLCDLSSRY
T4 sequence (P41143 whole entry): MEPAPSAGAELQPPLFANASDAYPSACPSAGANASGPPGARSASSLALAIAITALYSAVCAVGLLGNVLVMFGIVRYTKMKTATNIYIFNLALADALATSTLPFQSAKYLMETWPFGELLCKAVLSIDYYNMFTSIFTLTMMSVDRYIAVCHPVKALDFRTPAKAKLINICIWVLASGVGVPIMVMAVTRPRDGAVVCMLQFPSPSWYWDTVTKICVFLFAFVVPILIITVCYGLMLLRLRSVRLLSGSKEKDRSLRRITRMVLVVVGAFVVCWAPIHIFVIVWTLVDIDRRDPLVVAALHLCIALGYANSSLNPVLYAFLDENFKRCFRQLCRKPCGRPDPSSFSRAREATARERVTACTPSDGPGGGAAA
T2 sequence (P33032 whole entry): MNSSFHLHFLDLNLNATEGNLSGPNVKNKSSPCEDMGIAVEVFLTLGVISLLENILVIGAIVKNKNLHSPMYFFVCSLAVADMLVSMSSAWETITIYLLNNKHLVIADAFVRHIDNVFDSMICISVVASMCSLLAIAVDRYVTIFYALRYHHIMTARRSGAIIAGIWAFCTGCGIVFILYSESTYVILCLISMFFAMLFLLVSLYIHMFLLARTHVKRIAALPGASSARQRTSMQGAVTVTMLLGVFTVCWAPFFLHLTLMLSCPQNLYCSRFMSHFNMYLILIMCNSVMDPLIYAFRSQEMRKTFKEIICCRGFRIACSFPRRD
T7 sequence (Q99705 whole entry): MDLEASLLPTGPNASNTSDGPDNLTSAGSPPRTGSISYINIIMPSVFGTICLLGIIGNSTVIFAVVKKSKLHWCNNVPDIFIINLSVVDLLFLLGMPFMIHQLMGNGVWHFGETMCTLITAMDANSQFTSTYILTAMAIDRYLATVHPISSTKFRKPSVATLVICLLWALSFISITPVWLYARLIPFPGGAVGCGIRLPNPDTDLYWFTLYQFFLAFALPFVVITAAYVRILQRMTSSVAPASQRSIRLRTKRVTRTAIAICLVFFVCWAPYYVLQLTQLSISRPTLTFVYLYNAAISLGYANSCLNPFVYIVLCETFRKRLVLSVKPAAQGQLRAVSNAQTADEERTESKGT
T1 sequence (P41968 whole entry): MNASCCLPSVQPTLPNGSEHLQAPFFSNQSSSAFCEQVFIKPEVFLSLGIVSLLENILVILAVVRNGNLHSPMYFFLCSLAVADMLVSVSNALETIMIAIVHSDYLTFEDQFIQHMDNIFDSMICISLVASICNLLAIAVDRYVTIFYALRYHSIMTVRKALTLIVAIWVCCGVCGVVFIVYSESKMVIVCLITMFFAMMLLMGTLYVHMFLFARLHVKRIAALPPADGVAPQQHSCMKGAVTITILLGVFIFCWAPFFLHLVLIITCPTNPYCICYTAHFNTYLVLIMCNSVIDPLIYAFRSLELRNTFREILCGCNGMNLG
T8 sequence (P35372 whole entry): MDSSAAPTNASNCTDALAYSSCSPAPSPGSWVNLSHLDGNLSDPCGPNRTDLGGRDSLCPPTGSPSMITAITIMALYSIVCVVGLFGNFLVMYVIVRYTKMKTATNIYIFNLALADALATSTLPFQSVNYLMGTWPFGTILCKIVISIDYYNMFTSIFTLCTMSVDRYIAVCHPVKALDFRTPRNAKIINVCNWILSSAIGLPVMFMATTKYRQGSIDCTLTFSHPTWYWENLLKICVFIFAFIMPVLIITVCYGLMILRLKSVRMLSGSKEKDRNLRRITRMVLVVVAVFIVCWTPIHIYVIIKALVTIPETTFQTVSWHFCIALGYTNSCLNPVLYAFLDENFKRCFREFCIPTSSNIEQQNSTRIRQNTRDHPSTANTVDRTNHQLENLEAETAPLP
T3 sequence (P41146 whole entry): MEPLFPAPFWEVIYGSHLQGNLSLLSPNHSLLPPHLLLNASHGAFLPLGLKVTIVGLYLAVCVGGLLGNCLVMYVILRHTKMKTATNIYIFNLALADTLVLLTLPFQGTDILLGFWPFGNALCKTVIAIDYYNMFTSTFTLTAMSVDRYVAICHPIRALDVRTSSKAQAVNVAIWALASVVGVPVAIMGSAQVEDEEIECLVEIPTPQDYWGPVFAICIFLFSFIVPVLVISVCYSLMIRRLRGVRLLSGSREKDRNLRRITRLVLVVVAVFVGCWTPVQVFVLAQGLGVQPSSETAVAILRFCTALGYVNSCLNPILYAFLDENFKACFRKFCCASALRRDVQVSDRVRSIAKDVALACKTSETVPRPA
T10 sequence (P41145 whole entry): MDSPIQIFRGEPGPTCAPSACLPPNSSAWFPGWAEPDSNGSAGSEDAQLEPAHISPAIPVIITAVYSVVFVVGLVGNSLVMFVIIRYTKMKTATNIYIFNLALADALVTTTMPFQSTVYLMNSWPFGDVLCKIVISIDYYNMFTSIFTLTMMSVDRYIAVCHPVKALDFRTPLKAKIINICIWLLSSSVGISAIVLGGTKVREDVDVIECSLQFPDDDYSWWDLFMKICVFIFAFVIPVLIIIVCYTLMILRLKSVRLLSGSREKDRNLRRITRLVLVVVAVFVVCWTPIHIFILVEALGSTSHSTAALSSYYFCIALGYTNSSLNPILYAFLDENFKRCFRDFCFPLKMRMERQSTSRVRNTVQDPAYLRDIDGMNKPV

Structure (SMILES)	A3: inhibition of radioligand binding, human melanocortin (MC3) (Human Melanocortin (MC3))	A5: inhibition of radioligand binding, human melanocortin (MC5) (Human melanocortin (MC5))	A10: inhibition of radioligand binding, human opioid (ORL1) (Human opioid (ORL1))	A1: inhibition of radioligand binding, human δ-opioid (DOP) (Human δ-opioid (DOP))	A8: inhibition of radioligand binding, human neurokinin (NK1) (Human neurokinin (NK1))	A4: inhibition of radioligand binding, human melanocortin (MC4) (Human Melanocortin (MC4))	A6: inhibition of radioligand binding, human melanin-concentrating hormone (MCH1) [1]	A7: inhibition of radioligand binding, human μ-opioid (MOP) (Human μ-opioid (MOP))	A11: inhibition of radioligand binding, mouse urotensin (mUR2) (Mouse urotensin (mUR2))	A2: inhibition of radioligand binding, human κ-opioid (KOP) (Human κ-Opioid (KOP))	A9: inhibition of radioligand binding, human neuropeptide Y (NPY-Y1) [2]	A3: inhibition of radioligand binding (Human Melanocortin (MC3); FlashPlate)	A5: inhibition of radioligand binding (Human melanocortin (MC5); FlashPlate)	A10: inhibition of radioligand binding (Human opioid (ORL1); FlashPlate)	A1: inhibition of radioligand binding (Human δ-opioid (DOP); FlashPlate)	A8: inhibition of radioligand binding (Human neurokinin (NK1); filtration)	A4: inhibition of radioligand binding (Human Melanocortin (MC4); FlashPlate)	A6: inhibition of radioligand binding ([1]; [125I]-S36057, FlashPlate)	A7: inhibition of radioligand binding (Human μ-opioid (MOP); FlashPlate)	A11: inhibition of radioligand binding (Mouse urotensin (mUR2); FlashPlate)	also measured
CSC1O[C@H](COCc2ccc(Cl)cc2)[C@@H](O)[C@@H](OCc2ccc(-c3ccccc3)cc2)[C@H]1NC(=O)CN (stereo partly shown) [compound 288]	− (“−” indicates less than 50% inhibition at 10 μM)	− (“−” indicates less than 50% inhibition at 10 μM)	− (“−” indicates less than 50% inhibition at 10 μM)	− (“−” indicates less than 50% inhibition at 10 μM)	+ (“+” indicates greater than 50% inhibition at 10 μM)	− (“−” indicates less than 50% inhibition at 10 μM)	− (“−” indicates less than 50% inhibition at 10 μM)	− (“−” indicates less than 50% inhibition at 10 μM)	− (“−” indicates less than 50% inhibition at 10 μM)	− (“−” indicates less than 50% inhibition at 10 μM)	− (“−” indicates less than 50% inhibition at 10 μM)	–	–	–	–	–	–	–	–	–	–
NCCC(=O)NC1C(OCc2ccccc2)OC(COCc2ccccc2)C(O)C1OCc1ccccc1 (stereo not shown) [compound 370]	− (“−” indicates less than 50% inhibition at 10 μM)	− (“−” indicates less than 50% inhibition at 10 μM)	− (“−” indicates less than 50% inhibition at 10 μM)	− (“−” indicates less than 50% inhibition at 10 μM)	+ (“+” indicates greater than 50% inhibition at 10 μM)	− (“−” indicates less than 50% inhibition at 10 μM)	− (“−” indicates less than 50% inhibition at 10 μM)	− (“−” indicates less than 50% inhibition at 10 μM)	− (“−” indicates less than 50% inhibition at 10 μM)	− (“−” indicates less than 50% inhibition at 10 μM)	− (“−” indicates less than 50% inhibition at 10 μM)	–	–	–	–	–	–	–	–	–	–
CSC1OC(COCc2ccccc2)C(O)C(OCc2ccc(Cl)cc2)C1NC(=O)CCCNC(=N)N (stereo not shown) [compound 268]	–	–	–	–	–	–	–	–	–	–	–	− (“−” indicates less than 50% inhibition at 10 μM)	+ (“+” indicates greater than 50% inhibition at 10 μM)	− (“−” indicates less than 50% inhibition at 10 μM)	− (“−” indicates less than 50% inhibition at 10 μM)	+ (“+” indicates greater than 50% inhibition at 10 μM)	− (“−” indicates less than 50% inhibition at 10 μM)	− (“−” indicates less than 50% inhibition at 10 μM)	− (“−” indicates less than 50% inhibition at 10 μM)	− (“−” indicates less than 50% inhibition at 10 μM)	A2: inhibition of radioligand binding (Human κ-Opioid (KOP); filtration): − (“−” indicates less than 50% inhibition at 10 μM); A9: inhibition of radioligand binding ([2]; FlashPlate): − (“−” indicates less than 50% inhibition at 10 μM)
CSC1O[C@H](COCc2ccc(-c3ccccc3)cc2)[C@@H](O)[C@@H](OCc2ccc(Cl)cc2)[C@H]1NC(=O)CCNC(=N)N (stereo partly shown) [compound 277]	–	–	–	–	–	–	–	–	–	–	–	+ (“+” indicates greater than 50% inhibition at 10 μM)	− (“−” indicates less than 50% inhibition at 10 μM)	− (“−” indicates less than 50% inhibition at 10 μM)	− (“−” indicates less than 50% inhibition at 10 μM)	+ (“+” indicates greater than 50% inhibition at 10 μM)	− (“−” indicates less than 50% inhibition at 10 μM)	− (“−” indicates less than 50% inhibition at 10 μM)	− (“−” indicates less than 50% inhibition at 10 μM)	− (“−” indicates less than 50% inhibition at 10 μM)	A2: inhibition of radioligand binding (Human κ-Opioid (KOP); filtration): − (“−” indicates less than 50% inhibition at 10 μM); A9: inhibition of radioligand binding ([2]; FlashPlate): − (“−” indicates less than 50% inhibition at 10 μM)
NCCCC(=O)NC1C(OCc2ccc3ccccc3c2)OC(COCc2ccccc2)C(O)C1OCc1ccccc1 (stereo not shown) [compound 397]	–	–	–	–	–	–	–	–	–	–	–	–	–	–	–	–	–	–	–	–	A3: inhibition of radioligand binding (Human Melanocortin (MC3); human MC3 membranes): − (“−” indicates less than 50% inhibition at 10 μM); A5: inhibition of radioligand binding (Human melanocortin (MC5); human MC5 membranes): − (“−” indicates less than 50% inhibition at 10 μM); A10: inhibition of radioligand binding (Human opioid (ORL1); human ORL1 membranes, 10 µM): + (“+” indicates greater than 50% inhibition at 10 μM); A1: inhibition of radioligand binding (Human δ-opioid (DOP); human DOP membranes): − (“−” indicates less than 50% inhibition at 10 μM); A8: inhibition of radioligand binding (Human neurokinin (NK1); human NK1 membranes): + (“+” indicates greater than 50% inhibition at 10 μM); A4: inhibition of radioligand binding (Human Melanocortin (MC4); human MC4 membranes, 10 µM): + (“+” indicates greater than 50% inhibition at 10 μM); A6: inhibition of radioligand binding ([1]; [125I]-S36057, human MCH1 membranes): − (“−” indicates less than 50% inhibition at 10 μM); A7: inhibition of radioligand binding (Human μ-opioid (MOP); human MOP membranes, 10 µM): − (“−” indicates less than 50% inhibition at 10 μM); A11: inhibition of radioligand binding (Mouse urotensin (mUR2); mouse mUR2 membranes): − (“−” indicates less than 50% inhibition at 10 μM); A2: inhibition of radioligand binding (Human κ-Opioid (KOP); human KOP membranes): − (“−” indicates less than 50% inhibition at 10 μM); A9: inhibition of radioligand binding ([2]; human NPY-Y1 membranes): − (“−” indicates less than 50% inhibition at 10 μM)
